Each sequence was assayed on tumor cells (assay: Tumor cell lysis by generated T cells in presence of neutralizing HLA-A2 or HLA-ABC antibodies). Conditions: not given.
Type: cell-based, human
SLAFLPESFD (homo sapiens) was tested, and the “Lysis of tumor cells by generated T cells with neutralizing HLA-A2 or HLA-ABC antibody” value was “blocked lysis of tumor cells”.

Each sequence was assayed on breast cancer cell lines (assay: Cytotoxic T cell assay: lysis of breast cancer cells by polypeptide-generated CD8+ T cells). Conditions: compared to CD8+ T cells generated using p369-377.
Type: cell-based, human
Description: Another in vitro assay was performed to measure lysis of the breast cancer cells by the T cells.
SLAFLPESFD (homo sapiens) was tested, and the “Lysis of breast cancer cell lines by CD8+ T cells generated with the polypeptide” value was “recognized and lysed all tested breast cancer cell lines at much higher levels”.

These sequences were tested on HLA-A2 / HLA-ABC restricted T cell reactivity (assay: IFN-γ release of generated T cells in presence of neutralizing HLA-A2 or HLA-ABC antibodies). Conditions: versus control isotype matched antibody.
Type: cell-based, human
SLAFLPESFD (homo sapiens) was tested, and the “Reactivity (IFN-γ release) of generated T cells with neutralizing HLA-A2 or HLA-ABC antibody” value was “markedly suppressed”.

Each sequence was assayed on target cells pulsed with polypeptide (assay: IFN-γ ELIspot of polypeptide-generated CD8+ T cell lines against polypeptide-pulsed target cells). Conditions: not given.
Type: cell-based, human
With SLAFLPESFD (homo sapiens) the “Recognition of polypeptide-pulsed target cells by T cells generated with the polypeptide” value was “recognized target cells pulsed with either the p373-382 polypeptide or the p369-377 polypeptide”.

These sequences were tested on 20S proteasome (assay: In vitro cleavage of HER-2/neu 19-mer by purified 20S proteasome). Conditions: from HER-2/neu 19-mer (364-382).
Type: biochemical
Description: (§1) The following was performed to determine if E75 is processed from HER-2/neu or HER-2/neu fragments by multi-subunit enzymes referred to as the proteasome and immunoproteasome, which are required for loading of polypeptide onto MHC class I molecules. […] (SEQ ID NO:3), was synthesized. […] The 19-mer was then cleaved using purified 20S proteasome and immunoproteasome.
For GSLAFLPESFD (homo sapiens), the “Peptide generated by proteasome” value was “+”.
With “GSLAFLPESF (homo sapiens) [HER-2/neu amino acids 372-381]” the “Peptide generated by proteasome” value was “+”.
LAFLPESFD (homo sapiens) was tested, and the “Peptide generated by proteasome” value was “+”.
With “FAGCKKIFGSL (homo sapiens) [HER-2/neu amino acids 364-374]” the “Peptide generated by proteasome” value was “+”.
With “FGSLAFLPES (homo sapiens) [HER-2/neu amino acids 371-380]” the “Peptide generated by proteasome” value was “+”.
In the case of FAGCKKIFGS (homo sapiens), the “Peptide generated by proteasome” value was “+”.
“FGSLAFLPESF (homo sapiens) [HER-2/neu amino acids 371-381]” was tested, and the “Peptide generated by proteasome” value was “+”.
AFLPESFD (homo sapiens) was tested, and the “Peptide generated by proteasome” value was “+”.
SLAFLPESF (homo sapiens) was tested, and the “Peptide generated by proteasome” value was “+”.
In the case of SLAFLPESFD (homo sapiens), the “Peptide generated by proteasome” value was “+”.

The sequences below were run on immunoproteasome (assay: In vitro cleavage of HER-2/neu 19-mer by purified immunoproteasome). Conditions: from HER-2/neu 19-mer (364-382).
Type: biochemical
Description: as §1
In the case of GSLAFLPESFD (homo sapiens), the “Peptide generated by immunoproteasome” value was “+”.
“GSLAFLPESF (homo sapiens) [HER-2/neu amino acids 372-381]” was tested, and the “Peptide generated by immunoproteasome” value was “+”.
LAFLPESFD (homo sapiens) was tested, and the “Peptide generated by immunoproteasome” value was “+”.
For “FAGCKKIFGSL (homo sapiens) [HER-2/neu amino acids 364-374]”, the “Peptide generated by immunoproteasome” value was “+”.
With “FGSLAFLPES (homo sapiens) [HER-2/neu amino acids 371-380]” the “Peptide generated by immunoproteasome” value was “+”.
FAGCKKIFGS (homo sapiens) was tested, and the “Peptide generated by immunoproteasome” value was “+”.
In the case of “FGSLAFLPESF (homo sapiens) [HER-2/neu amino acids 371-381]”, the “Peptide generated by immunoproteasome” value was “+”.
With AFLPESFD (homo sapiens) the “Peptide generated by immunoproteasome” value was “+”.
In the case of SLAFLPESF (homo sapiens), the “Peptide generated by immunoproteasome” value was “+”.
With SLAFLPESFD (homo sapiens) the “Peptide generated by immunoproteasome” value was “+”.

Each sequence was assayed on breast cancer cell lines that express varying levels of HER-2/neu (assay: not given). Conditions: not given.
Type: cell-based, human
For SLAFLPESFD (homo sapiens), the “Recognition of breast cancer cells by CD8+ T cells generated with the polypeptide” value was “able to recognize the breast cancer cells at much higher levels”.

These sequences were tested on 20S proteasome and immunoproteasome (assay: Processing of longer HER-2/neu polypeptides (19-mer, 23-mer) treated with the proteasomes). Conditions: 19-mer FAGCKKIFGSLAFLPESFD as substrate.
Type: biochemical
Description: as §1
For “FAGCKKIFGSLAFLPESFD (homo sapiens) [19-mer polypeptide, substrate of the cleavage assay]”, the “Processing by purified 20S proteasome and immunoproteasome” value was “consistently found to be processed into several other shorter polypeptides”.

Same assay, conditions: 23-mer containing p373-382 as substrate
With SLAFLPESFD (homo sapiens) the “Release from 23-mer treated with the proteasomes” value was “released from the 23-mer”.

From US10117919B2, “Methods and materials for generating CD8+ T cells having the ability to recognize cancer cells expressing a HER2/neu polypeptide” (Mayo Foundation for Medical Education and Research, priority 2012, dated 2018)
